Consider one compound from US6410508B1 (priority 1998, dated 2002).

Molecules are shown by their SMILES. pKd: −log10 of the molar value.

The subject of test [1] is SaOS2 cells. Nature of the test: Intracellular calcium measurement with fura-2 in SaOS2 cells. The class given is cell-based, human. To be noted: fura-2, dose-dependent response. The method, then:
(§1) Peak increases in intracellular calcium from four different experiments were calculated. Data is expressed as mean±SEM; *=p<0.001; **=p<0.001. […] Cellular cAMP was measured with a commercially available radioimmunoassay (Biomedical Technologies, Stoughton, Mass.). Data is expressed as mean+SEM; **=p<0.001.
Intracellular calcium measurements were made as described by Gasalla-Herraiz, et al., Biochem Biophys Res Commun 214:373-88 (1995). Briefly, SaOS2 cells were grown in 75 cm^2 flasks and removed by incubating in PBS/EGTA. Cells were loaded with the calcium sensitive dye fara-2AM in KRB, for 45 min at room temperature. The cells were then centrifuged and resuspended in KRB. After approximately 30 minutes at room temperature, to allow esterase cleavage of fura-2AM to fura-2, the cells were again centrifuged and placed in a cuvette in a dual-wavelength spectrophotometer (Photon Technologies International, South Brunswick, N.J.). Fluorescence was then measured using excitation wavelengths of 340 and 380 nm and an emission wavelength of 510 nm. Autoflourescence was measured in unloaded cells and this value subtracted from all the measurements.
For orientation: A change in cytosolic calcium serves as a functional read-out for many receptors and channels.

For test [2], the system named is SaOS2 cells. Nature of the test: Cellular cAMP content by radioimmunoassay in SaOS2 cells. The test is classed as cell-based, human. To be noted: GIP 1 μM. The method, then:
as §1
cAMP measurements were done as described by Isales, et al., Endocrinology 129:489-95 (1991). Briefly, SaOS2 cells were grown to confluence in 60 mm^2 dishes and placed in KRB for 24 hours before use. In order to facilitate the measurement of cAMP production, 1 mM isomethylbutylxanthine (IBMX) was added prior to agonist addition for 10 minutes, followed by incubation with agonist for 10 minutes. Incubations were stopped by addition of 5% TCA, left on ice for 15 minutes and the cell extract collected. The extracts were neutralized by addition of a 1:1 solution ice cold Freon/Tri-N-octylamine (4:1,v/v). Each sample was vortexed for at least 30 sec to ensure adequate mixing. The mixture was then centrifaged at 2,500 rpm for 20 minutes ([…]). The top aqueous phase containing the cAMP was collected. The pH of the upper phase was checked to ensure adequate neutralization. The samples were stored at −70° C. until analysis. cAMP was measured using a commercially available radioimmunoassay (Biomedical Technologies, Stoughton, Mass.). […]

In test [3] the test system is SaOS2 cells. Put plainly: Collagen type I mRNA expression by northern blot in SaOS2 cells. The class given is cell-based, human. The method, then:
After 24 hourg, total RNA was extracted and probed with a collagen type I specific probe. The autoradiographs were then scanned and the densitometry quantified on a Sun Sparc station using Bioimage software. (n=4, *=p<0.001). […] The densitometry of four different experiments was summed and is expressed as a bar graph; *=p<0.001 vs control, as a function of time, in FIG. 2A.
After 24 hours, total RNA was extracted from cells using Trizol. RNA (20 μg) was electrophoresed on a 1.2% agarose-formaldehyde gel and transferred to a nylon filter. The blots were hybridized overnight at 65° C. with a ^32P-labeled probe (10^6 cpm/ml), labeled by the random-priming method and washed at a maximum stringency. Blots were exposed to Kodak XAR 5 film and analyzed by densitometry, quantified on a Sun Sparc station using Bioimage software. (n=4, *=p<0.001). The collagen densitometry was normalized to GAPDH, a housekeeping gene, found not to change in response to GIP.
Total RNA was extracted from cells using Trizol (Gaithersburg, Md.). RNA was stored at −70° C. until use. RNA (20 μg) was electrophoresed on a 1.2% agarose-formaldehyde gel and transferred to a nylon filter. The blots were hybridized overnight at 65° C. with a ^32P-labeled probe (10^6 cpm/ml), labeled by the random-priming method and washed at maximum stringency. Hybridization was carried out in a solution of 7% SDS, 1% BSA, 1 mM EDTA, 250 mM Na2HPO4. The hybridized filters were washed with four 5 min washes of 2×SSC, 0.1% SDS at room temperature and twice in 0.1×SSC, 0.1% SDS for 30 min at 65° C. The blots were then exposed to Kodak XAR 5 film. The probes used were GAPDH (ATCC clone 57090), collagen 1 (i.m.a.g.e. clone# 308919) and a human GIPR fragment derived by PCR corresponding to transmembrane domains 2 to 7.

In a further test the test system is MG63 cells. Put plainly: Alkaline phosphatase activity in MG63 cells. The class given is cell-based, human. How it is done: Shown are the Means±SEM of triplicates of four different experiments. *=p<0.05; +=p<0.001.
Alkaline phosphatase (ALP) activity was measured using a commercially available assay kit (ALP […] Colorimetric test; Sigma Diagnostic, St. Louis, Mo.). This kit measures the conversion of p-nitrophenyl phosphate top-nitrophenol and inorganic phosphate. The change in absorbance at 405 nm is directly proportional to ALP activity. MG 63 cells were grown in 6 well plates incubated with the indicated agonist for the indicated times (medium was changed daily with readdition of fresh agonist) and samples collected. The kit reagents were added to the sample cuvette in the spectrophotometer at 30° C. and absorbances at 405 nm obtained at 1, 2 and 3 minutes. ALP activity (U/L) was determined using the change in absorbance with time and a millimolar absorptivity of p-nitrophenol at 405 nm of 18.45.

Test [4] has as its system fetal radius and ulna bone explants. Put plainly: Fetal long bone resorption assay (45Ca release). The test is classed as cell-based, rat. The note with it: 10 nM PTH, GIP 10 nM. How it is done:
Pregnant Sprague-Dawley rats (Charles River Laboratories, Kingston, N.Y.) were injected with 200 μCi^45Ca on day 18 of gestation and killed one day later to remove the labeled fetal radius and ulna. […] Medium was changed every 3 days and ^45Ca was measured after every culture period. Resorption is expressed as the ratio of ^45Ca released from treated versus control bones.

A further test has as its system ovariectomized (OVX) rat. Nature of the test: Bone mineral density by DXA in ovariectomized and non-OVX rats. The test is classed as in vivo, Sprague-Dawley rats. The note with it: six weeks. From the text: 1. Control. Five non-OVX rats received daily injections at the same time everyday (09:00) of saline vehicle for six weeks into the tail vein.
3. OVX. Six OVX rats received saline vehicle injected daily for six weeks.

A further test concerns the target receptors for GIP. To be noted: pancreatic β cells; depending on the cell system and the source of GIP (human versus porcine); read-out: binding affinity; cited from earlier work.

As for `CC[C@H](C)[C@H](NC(=O)[C@H](CO)NC(=O)[C@H](Cc1ccc(O)cc1)NC(=O)[C@H](CC(=O)O)NC(=O)[C@H](CO)NC(=O)[C@@H](NC(=O)[C@H](Cc1ccccc1)NC(=O)[C@@H](NC(=O)CNC(=O)[C@H](CCC(=O)O)NC(=O)[C@H](C)NC(=O)[C@@H](N)Cc1ccc(O)cc1)[C@@H](C)O)[C@@H](C)CC)C(=O)N[C@@H](C)C(=O)N[C@@H](CCSC)C(=O)N[C@@H](CC(=O)O)C(=O)N[C@@H](CCCCN)C(=O)N[C@H](C(=O)N[C@@H](Cc1c[nH]cn1)C(=O)N[C@@H](CCC(N)=O)C(=O)N[C@@H](CCC(N)=O)C(=O)N[C@@H](CC(=O)O)C(=O)N[C@@H](Cc1ccccc1)C(=O)N[C@H](C(=O)N[C@@H](CC(N)=O)C(=O)N[C@@H](Cc1c[nH]c2ccccc12)C(=O)N[C@@H](CC(C)C)C(=O)N[C@@H](CC(C)C)C(=O)N[C@@H](C)C(=O)N[C@@H](CCC(N)=O)C(=O)N[C@@H](CCCCN)C(=O)NCC(=O)N[C@@H](CCCCN)C(=O)N[C@@H](CCCCN)C(=O)N[C@@H](CC(N)=O)C(=O)N[C@@H](CC(=O)O)C(=O)N[C@@H](Cc1c[nH]c2ccccc12)C(=O)N[C@@H](CCCCN)C(=O)N[C@@H](Cc1c[nH]cn1)C(=O)N[C@@H](CC(N)=O)C(=O)N[C@H](C(=O)N[C@H](C(=O)N[C@@H](CCC(N)=O)C(=O)O)[C@@H](C)O)[C@@H](C)CC)C(C)C)[C@@H](C)CC` [GIP, Glucose-dependent Insulinotropic Peptide], the “GIP concentration at which a significant increase in [Ca2+]i occurs” value with SaOS2 cells [1] is 0.1 nM. In addition, the “elevation in cellular cAMP content” value in the test on SaOS2 cells [2] was found to be 710 % above control. Further, in the test with SaOS2 cells [3] (1 nM GIP, 0-12 hours), the “time course of GIP effect on collagen mRNA” value is reported as “after six hours of stimulation”. Further, the “effect on collagen synthesis” value is listed as “maximal effect” in the test with SaOS2 cells [3] (higher doses (0.10, and 100 nM)); “no effect” with SaOS2 cells [3] (lower GIP dose 0.1 nM). Further, the “GIP concentration significantly increasing ALP activity” value in the test with MG63 cells came out at 0.1 nM. The “onset of ALP activity increase” value in the test on MG63 cells (0.1 nM GIP, 1-6 days) is recorded as “as early as two days after stimulation”. Besides, the “GIP effect on ALP versus positive control” value with MG63 cells (0.1 nM GIP, control 1,25 vitamin D (10 ng/ml)+TGF-β (10 ng/ml)) is “larger than that observed with 1,25 vitamin D”. In the test on MG63 cells (GIP 1-10 nM), the “ALP activity at higher doses versus 0.1 nM” value is “did not increase ALP activity any further”. For the same compound, the PTH-induced bone resorption result in test [4] was “inhibits PTH-induced bone resorption”. Also, the “bone density versus controls” value with ovariectomized (OVX) rat (OVX rats treated with GIP) was “not statistically different from controls”. Also, the “densitometry of the whole extremity” value in the test on ovariectomized (OVX) rat (all experimental groups) was “no different among the various experimental groups”. In addition, in the test with ovariectomized (OVX) rat (non-OVX control rats, GIP 0.05 mg/kg daily), the “bone density versus untreated animals” value is recorded as “lower bone density than the untreated animals, this difference was not statistically significant”. Besides, on receptors for GIP, the pKd is 7.52 to 9.52.
